Experimental data taken from PubChem BioAssay (NCI).
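Following 48 hours of exposure in 96-well plates, responses at five concentrations were used to interpolate endpoints linearly. The concentration for full growth arrest is given as TGI.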

Columns and labels:
Test in all cases: growth of human tumour cells (NCI), 48 h
SK-MEL-5 melanoma = test system: SK-MEL-5 melanoma
BT-549 breast = test system: BT-549 breast
U251 CNS = test system: U251 CNS
PC-3 prostate = test system: PC-3 prostate
SNB-75 CNS = test system: SNB-75 CNS
MOLT-4 leukemia = test system: MOLT-4 leukemia
SF-268 CNS = test system: SF-268 CNS
SF-295 CNS = test system: SF-295 CNS
SK-OV-3 ovarian = test system: SK-OV-3 ovarian
SK-MEL-2 melanoma = test system: SK-MEL-2 melanoma
RPMI-8226 leukemia = test system: RPMI-8226 leukemia
COLO 205 colon = test system: COLO 205 colon
UACC-62 melanoma = test system: UACC-62 melanoma
ACHN renal = test system: ACHN renal
DU-145 prostate = test system: DU-145 prostate
HL-60(TB) leukemia = test system: HL-60(TB) leukemia
SNB-19 CNS = test system: SNB-19 CNS
LOX IMVI melanoma = test system: LOX IMVI melanoma
NCI-H23 lung = test system: NCI-H23 lung

Row | Compound | TGI (SK-MEL-5 melanoma) [µM] | TGI (BT-549 breast) [µM] | TGI (U251 CNS) [µM] | TGI (PC-3 prostate) [µM] | TGI (SNB-75 CNS) [µM] | TGI (MOLT-4 leukemia) [µM] | TGI (SF-268 CNS) [µM] | TGI (SF-295 CNS) [µM] | TGI (SK-OV-3 ovarian) [µM] | TGI (SK-MEL-2 melanoma) [µM] | TGI (RPMI-8226 leukemia) [µM] | TGI (COLO 205 colon) [µM] | TGI (UACC-62 melanoma) [µM] | TGI (ACHN renal) [µM] | TGI (DU-145 prostate) [µM] | TGI (HL-60(TB) leukemia) [µM] | TGI (SNB-19 CNS) [µM] | TGI (LOX IMVI melanoma) [µM] | TGI (NCI-H23 lung) [µM]
1 | N#CC1(C#N)[C@@H]2CCC=C(Sc3ccccc3)[C@@H]21 | 29.4 | 44.4 | 30.1 | 27.5 | 47.2 | 85.9 | 39 | 32.8 | 39.6 | 28.3 | > 100 | 32 | 37.6 | 33.1 | 30.4 | 49.9 | 97.9 | 36.8 | 
2 | COc1ccc2c(=O)c3c([nH]c2c1)OCC3=O | > 100 | > 100 | > 100 | > 100 | > 100 | > 100 | > 100 | > 100 | > 100 | > 100 | > 100 | > 100 | > 100 | > 100 | > 100 | > 100 | > 100 | > 100 | > 100
3 | CN(/N=C/c1ccc(Cl)c(Cl)c1)C1=NCCCCN1 | 27.8 | > 100 | > 100 | > 100 | > 100 | 80.9 | > 100 | > 100 | > 100 | 42.1 | 64 | 37.2 | 52.8 | > 100 | > 100 | 65.5 | > 100 | 27.2 | > 100
4 | O=C1NC(=O)C(C(c2ccc([N+](=O)[O-])cc2)C2C(=O)NC(=O)NC2=O)C(=O)N1 | > 100 | > 100 | > 100 | > 100 |  | > 100 | > 100 | > 100 |  | > 100 | > 100 | > 100 | > 100 | > 100 | > 100 | > 100 | > 100 | > 100 | > 100
5 | Cc1ccc(N=C2OP(=O)(Nc3ccc(C)cc3)Oc3ccccc32)cc1 (stereo unspecified) | > 100 | > 100 | > 100 | > 100 | > 100 | > 100 | > 100 | > 100 | > 100 | > 100 |  | > 100 | > 100 | > 100 | > 100 | > 100 | > 100 | > 100 | > 100
6 | [N-]=[N+]=Nc1c(-c2ccccc2)c(=O)n(-c2ccccc2)c2ccccc12 |  | > 100 | > 100 | > 100 | > 100 | > 100 | 62.3 | > 100 | > 100 |  | > 100 | > 100 | > 100 | > 100 | > 100 | > 100 |  | > 100 | > 100
7 | Cc1c(C(=O)Nc2ccccc2)nnn1-c1ccnc2cc(C(F)(F)F)ccc12 | 52.6 | > 100 | > 100 | > 100 | > 100 | 79.6 | > 100 | > 100 | > 100 | > 100 |  | > 100 | > 100 | > 100 | > 100 | 77.7 | > 100 | 78.1 | > 100
8 | COc1ccc(NC(=O)C(C#N)=C(SC)SC)cc1 | > 100 | > 100 | > 100 | > 100 |  | > 100 | > 100 | > 100 | > 100 | > 100 | > 100 | > 100 | > 100 | > 100 | > 100 | > 100 | > 100 | > 100 | > 100
9 | O=C(O)/C=C/c1ccc(OS(=O)(=O)O)cc1 | > 100 | > 100 | > 100 | > 100 | > 100 | > 100 | > 100 | > 100 | > 100 | > 100 | > 100 | > 100 | > 100 | > 100 | > 100 | > 100 | > 100 | > 100 | > 100
10 | COc1ccccc1/C=N/Nc1nnc2c3ccccc3c3ncccc3c2n1 | > 100 | > 100 | > 100 | > 100 | 49.3 | > 100 | > 100 | 31.8 | > 100 | > 100 | > 100 | > 100 | > 100 | > 100 | > 100 | > 100 | > 100 | > 100 | > 100
11 | Cc1cn(C2CC(N=[N+]=[N-])C(CO)O2)c(=O)n(CCCCBr)c1=O (stereo unspecified) |  | > 100 | 44.6 | > 100 | > 100 | > 100 | > 100 | > 100 | > 100 | > 100 | > 100 | > 100 | > 100 | > 100 | > 100 |  | > 100 | > 100 | > 100
12 | CC[C@]1(Cc2ccc(OC)c(OC)c2)C2CC(C(=O)OC)ON2O[C@H](OCc2ccccc2)[C@@H]1OC(C)=O (stereo partly specified) | > 100 | > 100 | > 100 | > 100 | > 100 | > 100 |  | > 100 | > 100 | > 100 | > 100 | > 100 | > 100 | > 100 | > 100 | 66.1 | > 100 | > 100 | > 100
